Measured values published in US20240182526A1, “COMPOSITIONS AND METHODS FOR MODULTING INFLAMMATORY AND DEGENERATIVE DISORDER” (University of Southern California, priority 2021, published 2024).
Entries after “also recorded” stand apart in the source; their conditions may differ.

Key:
YAP1 = test: Western blot of YAP1 in LIF-treated pig articular chondrocytes; assay type: cell-based; conditions: 4 and 24 hours
Protocol: For standard western blot, treated and non-treated cells were lysed in RIPA Lysis and Extraction Buffer (Pierce, Rockford, IL) containing protease inhibitors (Pierce) followed by sonication with a 15-second pulse at a power output of 2 using the VirSonic 100 (SP Industries Company, Warminster, PA). Protein concentrations were determined by BCA protein assay (Pierce). Proteins were resolved with SDS-PAGE utilizing 4-15% Mini-PROTEAN TGX Precast Gels and transferred to Trans-Blot Turbo Transfer Packs with a 0.2-μm pore-size nitrocellulose membrane. The SDS-PAGE running buffer, 4-15% Mini-PROTEAN TGX Precast Gels, Trans-Blot Turbo Transfer Packs with a 0.2-μm pore-size nitrocellulose membrane was purchased from Biorad (Hercules, CA). Nitrocellulose membranes were blocked in 5% nonfat milk in 0.05% (v/v) Tween 20 (PBST) (Corning, Manassas, VA). […] Quantification of blots was performed using ImageJ 1.44 followed by Prism9 for analysis.
Experiments were performed to determine whether R805 is inclined to shift the signaling outputs downstream of gp130 promoting differential regulation similar to genetic ablation of Y814. As a readout, protein levels of phosphorylated SRC, MAPK (ERK 1/2) and NF-κB were measured in response to OSM while STAT3 and YAP1 levels were evaluated in response to LIF.

[1] = test system: rat medial meniscal tear model; test: Rat medial meniscal tear model of osteoarthritis; assay type: in vivo; conditions: 6 weeks post-surgery
Protocol: Immunohistochemistry. Histological staining for was performed on wild type (WT) mice, F814 mice and all mice that underwent destabilization of the medial meniscus (DMM). Six weeks after surgery, mice were sacrificed and joints were fixed in 10% formalin, decalcified in 10% EDTA and embedded in paraffin. For rat model, 6 weeks after partial medial meniscectomy (PMM), rats were sacrificed and joints were fixed in 10% formalin, decalcified in 10% EDTA and embedded in paraffin. A total of three 8 μm thick sections were made at a 200 μm interval by coronal sectioning. For canine model, 4 and 16 weeks after medial meniscal release (MMR), dogs were sacrificed and joints were fixed in 10% formalin, decalcified in 10% EDTA and embedded in paraffin. No animals were excluded from analysis. A microtome (Leica) was used to cut 5-μm sections for joints. H&E staining was performed to assess morphology. Safranin O/Fast Green staining, immunohistochemistry for proteolytic enzymes and Osteoarthritis Research Society International (OARSI) scoring was performed as described (41, 42). For OARSI scoring, observers performing the analysis were blinded as whether the slides were from treated or control animals. The stained samples were visually observed using LSCM (Zeiss LSM710, Carl Zeiss, Germany).
Rat model of osteoarthritis. All experiments were conducted ethically. […]

What does the source list for `Cc1ccc(-c2csc(NC(=O)c3ccccn3)n2)cc1` [Peptide R805]?
YAP1 downstream of LIF (YAP1): minimal inhibitory effect; cartilage thickness and stiffness (indentation mapping) ([1]; femoral condyle): maintained thickness and reduced stiffness in rat cartilage; cartilage degeneration (Safranin O histology) ([1]; weekly intra-articular injection): dramatically reduces the appearance of OA in rat and canine models; also recorded: prominent protective effects; also recorded: reduces cartilage degeneration
